Measurements published in PubChem BioAssay (NCI).
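Five compound concentrations were applied to cells in 96-well plates for 48 hours; endpoints were derived by simple linear interpolation of the resulting dose-response curve. TGI marks complete inhibition of growth.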

What was measured:
Experiment in all cases: inhibition of tumour cell growth, NCI panel, 48 h
EKVX NSCLC = tested on: EKVX NSCLC
SNB-19 CNS = tested on: SNB-19 CNS
OVCAR-8 ovarian = tested on: OVCAR-8 ovarian
SK-MEL-2 melanoma = tested on: SK-MEL-2 melanoma
HOP-62 NSCLC = tested on: HOP-62 NSCLC
SF-295 CNS = tested on: SF-295 CNS
RXF 393 renal = tested on: RXF 393 renal
OVCAR-4 ovarian = tested on: OVCAR-4 ovarian
COLO 205 colon = tested on: COLO 205 colon
SW-620 colon = tested on: SW-620 colon
ACHN renal = tested on: ACHN renal
MDA-N = tested on: MDA-N
M14 melanoma = tested on: M14 melanoma
NCI-H23 lung = tested on: NCI-H23 lung
MALME-3M melanoma = tested on: MALME-3M melanoma
NCI-H460 lung = tested on: NCI-H460 lung
SF-268 CNS = tested on: SF-268 CNS
MDA-MB-435 = tested on: MDA-MB-435
SF-539 CNS = tested on: SF-539 CNS
MOLT-4 leukemia = tested on: MOLT-4 leukemia
SK-MEL-28 melanoma = tested on: SK-MEL-28 melanoma
UACC-62 melanoma = tested on: UACC-62 melanoma
HCT-116 colon = tested on: HCT-116 colon
DU-145 prostate = tested on: DU-145 prostate
HS 578T breast = tested on: HS 578T breast
CAKI-1 renal = tested on: CAKI-1 renal
K-562 leukemia = tested on: K-562 leukemia
MCF7 breast = tested on: MCF7 breast
NCI/ADR-RES ovarian = tested on: NCI/ADR-RES ovarian
HCT-15 colon = tested on: HCT-15 colon
UACC-257 melanoma = tested on: UACC-257 melanoma
NCI-H522 lung = tested on: NCI-H522 lung
U251 CNS = tested on: U251 CNS
PC-3 prostate = tested on: PC-3 prostate
SK-MEL-5 melanoma = tested on: SK-MEL-5 melanoma
786-0 renal = tested on: 786-0 renal
TK-10 renal = tested on: TK-10 renal
KM12 colon = tested on: KM12 colon
BT-549 breast = tested on: BT-549 breast
HL-60(TB) leukemia = tested on: HL-60(TB) leukemia
SNB-75 CNS = tested on: SNB-75 CNS
SR leukemia = tested on: SR leukemia
SK-OV-3 ovarian = tested on: SK-OV-3 ovarian
NCI-H226 lung = tested on: NCI-H226 lung
UO-31 renal = tested on: UO-31 renal
A549 NSCLC = tested on: A549 NSCLC
T-47D breast = tested on: T-47D breast
RPMI-8226 leukemia = tested on: RPMI-8226 leukemia
LOX IMVI melanoma = tested on: LOX IMVI melanoma
OVCAR-3 ovarian = tested on: OVCAR-3 ovarian
HCC-2998 colon = tested on: HCC-2998 colon
SN12C renal = tested on: SN12C renal
MDA-MB-231 breast = tested on: MDA-MB-231 breast
HT29 colon = tested on: HT29 colon
OVCAR-5 ovarian = tested on: OVCAR-5 ovarian
HOP-92 NSCLC = tested on: HOP-92 NSCLC
IGROV1 ovarian = tested on: IGROV1 ovarian

## O=C(Nc1ccc2ncccc2c1)c1cc2c(cc1Cl)Sc1nccn1S2(=O)=O
EKVX NSCLC
  TGI: 39.1 µM
SNB-19 CNS
  TGI: 34.6 µM
OVCAR-8 ovarian
  TGI: 43.7 µM
SK-MEL-2 melanoma
  TGI: 33.3 µM
HOP-62 NSCLC
  TGI: 39.8 µM
SF-295 CNS
  TGI: 42 µM
RXF 393 renal
  TGI: 33.6 µM
OVCAR-4 ovarian
  TGI: 73 µM
COLO 205 colon
  TGI: 37.3 µM
SW-620 colon
  TGI: 34.1 µM
ACHN renal
  TGI: 87.6 µM
MDA-N
  TGI: 18.3 µM
M14 melanoma
  TGI: 29.8 µM
NCI-H23 lung
  TGI: 32.5 µM
MALME-3M melanoma
  TGI: 35.1 µM
NCI-H460 lung
  TGI: 30.6 µM
SF-268 CNS
  TGI: 48.4 µM
MDA-MB-435
  TGI: 17.1 µM
SF-539 CNS
  TGI: 57.4 µM
MOLT-4 leukemia
  TGI: 45.5 µM
SK-MEL-28 melanoma
  TGI: 42 µM
UACC-62 melanoma
  TGI: 32.7 µM
HCT-116 colon
  TGI: 25.4 µM
DU-145 prostate
  TGI: 31 µM
HS 578T breast
  TGI: > 100 µM
CAKI-1 renal
  TGI: 79.5 µM
K-562 leukemia
  TGI: 47 µM
MCF7 breast
  TGI: 35.2 µM
NCI/ADR-RES ovarian
  TGI: 47.6 µM
HCT-15 colon
  TGI: 24.1 µM
UACC-257 melanoma
  TGI: 47.8 µM
NCI-H522 lung
  TGI: 24.5 µM
U251 CNS
  TGI: 26.4 µM
PC-3 prostate
  TGI: > 100 µM
SK-MEL-5 melanoma
  TGI: 28.8 µM
786-0 renal
  TGI: 27.9 µM
TK-10 renal
  TGI: 69.4 µM
KM12 colon
  TGI: 21.7 µM
BT-549 breast
  TGI: 41.2 µM
HL-60(TB) leukemia
  TGI: 26.6 µM
SNB-75 CNS
  TGI: 30.7 µM
SR leukemia
  TGI: 45.2 µM
SK-OV-3 ovarian
  TGI: 62.5 µM
NCI-H226 lung
  TGI: 35.4 µM
UO-31 renal
  TGI: 39.8 µM
A549 NSCLC
  TGI: 40.6 µM
T-47D breast
  TGI: 45.4 µM
RPMI-8226 leukemia
  TGI: 41 µM
LOX IMVI melanoma
  TGI: 34.2 µM
OVCAR-3 ovarian
  TGI: 47.6 µM
HCC-2998 colon
  TGI: 27.8 µM
SN12C renal
  TGI: 33.3 µM
MDA-MB-231 breast
  TGI: 45.1 µM
HT29 colon
  TGI: 31.3 µM
OVCAR-5 ovarian
  TGI: 39.6 µM
HOP-92 NSCLC
  TGI: 76.7 µM
IGROV1 ovarian
  TGI: 29.3 µM
